Laboratory results: US20230049952A1, “METHODS AND COMPOUNDS FOR RESTORING MUTANT P53 FUNCTION” (PMV Pharmaceuticals, Inc., priority 2020, published 2023)

Test system: p53 signaling pathway in MT373 tumors
Experiment: MT373 syngeneic sarcoma model: mouse p53 signaling pathway profiling panel
Format: in vivo

CCn1c(C#CCNc2ccccc2)cc2cc(CNC3CCN(C)CC3)ccc21 [Compound 1, 1-Anilino-3-{1-ethyl-5-[(1-methyl-4-piperidylamino)methyl]-1H-indol-2-yl}-2-propyne]
Dnmt1 fold increase or percent reduction vs vehicle control (75 mg/kg BIDx1, 48 h): 1.11 fold or % | E2f1 fold increase or percent reduction vs vehicle control (75 mg/kg BIDx1, 48 h): 1.24 fold or % | E2f3 fold increase or percent reduction vs vehicle control (75 mg/kg BIDx1, 48 h): 30.44 fold or % | Egfr fold increase or percent reduction vs vehicle control (75 mg/kg BIDx1, 48 h): 34.80 fold or % | Egr1 fold increase or percent reduction vs vehicle control (75 mg/kg BIDx1, 48 h): 39.68 fold or % | Ep300 fold increase or percent reduction vs vehicle control (75 mg/kg BIDx1, 48 h): 1.01 fold or % | Ercc1 fold increase or percent reduction vs vehicle control (75 mg/kg BIDx1, 48 h): 43.22 fold or % | Esr1 fold increase or percent reduction vs vehicle control (75 mg/kg BIDx1, 48 h): 1.78 fold or % | Fadd fold increase or percent reduction vs vehicle control (75 mg/kg BIDx1, 48 h): 1.13 fold or % | Fas fold increase or percent reduction vs vehicle control (75 mg/kg BIDx1, 48 h): 10.67 fold or % | Fasl fold increase or percent reduction vs vehicle control (75 mg/kg BIDx1, 48 h): 1.48 fold or % | Foxo3 fold increase or percent reduction vs vehicle control (75 mg/kg BIDx1, 48 h): 3.18 fold or % | Gadd45a fold increase or percent reduction vs vehicle control (75 mg/kg BIDx1, 48 h): 49.07 fold or % | Hif1a fold increase or percent reduction vs vehicle control (75 mg/kg BIDx1, 48 h): 1.22 fold or % | Il6 fold increase or percent reduction vs vehicle control (75 mg/kg BIDx1, 48 h): 80.18 fold or % | Jun fold increase or percent reduction vs vehicle control (75 mg/kg BIDx1, 48 h): 29.72 fold or % | Kras fold increase or percent reduction vs vehicle control (75 mg/kg BIDx1, 48 h): 1.01 fold or % | Lig4 fold increase or percent reduction vs vehicle control (75 mg/kg BIDx1, 48 h): 1.05 fold or % | Mdm2 fold increase or percent reduction vs vehicle control (75 mg/kg BIDx1, 48 h): 12.55 fold or % | Mdm4 fold increase or percent reduction vs vehicle control (75 mg/kg BIDx1, 48 h): 19.35 fold or % | Mel1 fold increase or percent reduction vs vehicle control (75 mg/kg BIDx1, 48 h): 31.09 fold or % | Mlh1 fold increase or percent reduction vs vehicle control (75 mg/kg BIDx1, 48 h): 7.78 fold or % | Msh2 fold increase or percent reduction vs vehicle control (75 mg/kg BIDx1, 48 h): 11.63 fold or % | Myod1 fold increase or percent reduction vs vehicle control (75 mg/kg BIDx1, 48 h): 4.06 fold or % | Nf1 fold increase or percent reduction vs vehicle control (75 mg/kg BIDx1, 48 h): 29.60 fold or % | Nfkb1 fold increase or percent reduction vs vehicle control (75 mg/kg BIDx1, 48 h): 7.16 fold or % | Pcna fold increase or percent reduction vs vehicle control (75 mg/kg BIDx1, 48 h): 38.45 fold or % | Pmaip1 fold increase or percent reduction vs vehicle control (75 mg/kg BIDx1, 48 h): 1.15 fold or % | Ppm1d fold increase or percent reduction vs vehicle control (75 mg/kg BIDx1, 48 h): 4.68 fold or % | Prc1 fold increase or percent reduction vs vehicle control (75 mg/kg BIDx1, 48 h): 16.43 fold or % | Prkca fold increase or percent reduction vs vehicle control (75 mg/kg BIDx1, 48 h): 13.73 fold or % | Pten fold increase or percent reduction vs vehicle control (75 mg/kg BIDx1, 48 h): 1.01 fold or % | Pttg1 fold increase or percent reduction vs vehicle control (75 mg/kg BIDx1, 48 h): 1.08 fold or % | Rb1 fold increase or percent reduction vs vehicle control (75 mg/kg BIDx1, 48 h): 2.55 fold or % | Rela fold increase or percent reduction vs vehicle control (75 mg/kg BIDx1, 48 h): 1.07 fold or % | Rprm fold increase or percent reduction vs vehicle control (75 mg/kg BIDx1, 48 h): 2.09 fold or % | Serpinb5 fold increase or percent reduction vs vehicle control (75 mg/kg BIDx1, 48 h): 1.90 fold or % | Sesn2 fold increase or percent reduction vs vehicle control (75 mg/kg BIDx1, 48 h): 1.57 fold or % | Sfn fold increase or percent reduction vs vehicle control (75 mg/kg BIDx1, 48 h): 1.00 fold or % | Sirt1 fold increase or percent reduction vs vehicle control (75 mg/kg BIDx1, 48 h): 1.01 fold or % | Stat1 fold increase or percent reduction vs vehicle control (75 mg/kg BIDx1, 48 h): 1.73 fold or % | Tnf fold increase or percent reduction vs vehicle control (75 mg/kg BIDx1, 48 h): 1.36 fold or % | Traf1 fold increase or percent reduction vs vehicle control (75 mg/kg BIDx1, 48 h): 1.38 fold or % | Trp53bp2 fold increase or percent reduction vs vehicle control (75 mg/kg BIDx1, 48 h): 1.06 fold or % | Trp53 fold increase or percent reduction vs vehicle control (75 mg/kg BIDx1, 48 h): 1.16 fold or % | Apex1 fold increase or percent reduction vs vehicle control (75 mg/kg BIDx1, 72 h): 24.49 fold or % | Atm fold increase or percent reduction vs vehicle control (75 mg/kg BIDx1, 72 h): 12.27 fold or % | Atr fold increase or percent reduction vs vehicle control (75 mg/kg BIDx1, 72 h): 1.01 fold or % | Bag1 fold increase or percent reduction vs vehicle control (75 mg/kg BIDx1, 72 h): 25.72 fold or % | Bax fold increase or percent reduction vs vehicle control (75 mg/kg BIDx1, 72 h): 20.93 fold or % | Bbc3 fold increase or percent reduction vs vehicle control (75 mg/kg BIDx1, 72 h): 1.08 fold or % | Bcl2 fold increase or percent reduction vs vehicle control (75 mg/kg BIDx1, 72 h): 2.76 fold or % | Bid fold increase or percent reduction vs vehicle control (75 mg/kg BIDx1, 72 h): 1.12 fold or % | Birc5 fold increase or percent reduction vs vehicle control (75 mg/kg BIDx1, 72 h): 12.81 fold or % | Brca1 fold increase or percent reduction vs vehicle control (75 mg/kg BIDx1, 72 h): 10.57 fold or % | Brca2 fold increase or percent reduction vs vehicle control (75 mg/kg BIDx1, 72 h): 12.51 fold or % | Btg2 fold increase or percent reduction vs vehicle control (75 mg/kg BIDx1, 72 h): 16.69 fold or % | Casp2 fold increase or percent reduction vs vehicle control (75 mg/kg BIDx1, 72 h): 5.88 fold or % | Ccnb1 fold increase or percent reduction vs vehicle control (75 mg/kg BIDx1, 72 h): 10.10 fold or % | Ccne1 fold increase or percent reduction vs vehicle control (75 mg/kg BIDx1, 72 h): 1.09 fold or % | Ccng1 fold increase or percent reduction vs vehicle control (75 mg/kg BIDx1, 72 h): 9.69 fold or % | Ccnh fold increase or percent reduction vs vehicle control (75 mg/kg BIDx1, 72 h): 11.39 fold or % | Cdc25a fold increase or percent reduction vs vehicle control (75 mg/kg BIDx1, 72 h): 7.34 fold or % | Cdk1 fold increase or percent reduction vs vehicle control (75 mg/kg BIDx1, 72 h): 23.09 fold or % | Cdk4 fold increase or percent reduction vs vehicle control (75 mg/kg BIDx1, 72 h): 22.60 fold or % | Cdkn1a fold increase or percent reduction vs vehicle control (75 mg/kg BIDx1, 72 h): 1.42 fold or % | Cdkn2a fold increase or percent reduction vs vehicle control (75 mg/kg BIDx1, 72 h): 39.53 fold or % | Chek1 fold increase or percent reduction vs vehicle control (75 mg/kg BIDx1, 72 h): 20.93 fold or % | Cradd fold increase or percent reduction vs vehicle control (75 mg/kg BIDx1, 72 h): 31.95 fold or % | Cul9 fold increase or percent reduction vs vehicle control (75 mg/kg BIDx1, 72 h): 1.28 fold or % | Dapk1 fold increase or percent reduction vs vehicle control (75 mg/kg BIDx1, 72 h): 1.11 fold or % | Dnmt1 fold increase or percent reduction vs vehicle control (75 mg/kg BIDx1, 72 h): 1.02 fold or % | E2f1 fold increase or percent reduction vs vehicle control (75 mg/kg BIDx1, 72 h): 1.14 fold or % | E2f3 fold increase or percent reduction vs vehicle control (75 mg/kg BIDx1, 72 h): 15.87 fold or % | Egfr fold increase or percent reduction vs vehicle control (75 mg/kg BIDx1, 72 h): 24.18 fold or % | Egr1 fold increase or percent reduction vs vehicle control (75 mg/kg BIDx1, 72 h): 40.49 fold or % | Ep300 fold increase or percent reduction vs vehicle control (75 mg/kg BIDx1, 72 h): 9.15 fold or % | Ercc1 fold increase or percent reduction vs vehicle control (75 mg/kg BIDx1, 72 h): 29.53 fold or % | Esr1 fold increase or percent reduction vs vehicle control (75 mg/kg BIDx1, 72 h): 1.39 fold or % | Fadd fold increase or percent reduction vs vehicle control (75 mg/kg BIDx1, 72 h): 1.43 fold or % | Fas fold increase or percent reduction vs vehicle control (75 mg/kg BIDx1, 72 h): 12.05 fold or % | Fasl fold increase or percent reduction vs vehicle control (75 mg/kg BIDx1, 72 h): 1.42 fold or % | Foxo3 fold increase or percent reduction vs vehicle control (75 mg/kg BIDx1, 72 h): 14.18 fold or % | Gadd45a fold increase or percent reduction vs vehicle control (75 mg/kg BIDx1, 72 h): 25.11 fold or %
